Results published in US20150105252A1, “SUBSTITUTED PYRAZOLES AS HERBICIDES” (E I DU PONT DE NEMOURS AND COMPANY, priority 2013, published 2015).

Experiments:
pigweed [1] = assay: Test A preemergence; type: in vivo, Amaranthus retroflexus; conditions: preemergence
In short: (§1)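 Growth medium: loam soil blended with sand. Preemergence treatment used a directed soil spray right after planting; postemergence treatment targeted seedlings at one to two leaves (2–10 cm height). Response was judged by eye relative to untreated plants about 10 days later on a 0–100 control scale.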

barnyardgrass [2] = assay: Test B flood; type: in vivo, Echinochloa crus-galli; conditions: 250 g ai/ha, visual rating on 0 to 100 scale (0 no effect, 100 complete control), 13 to 15 days
In short: (§2)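 Greenhouse assay lasting 13 to 15 days. Treatment was into water flooding pots 3 cm deep, at the 2-leaf stage, with that level sustained afterwards. Scores compare treated with control plants visually, 100 denoting complete control and 0 no effect; a dash marks no test result.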

crabgrass, large = assay: Test C preemergence; type: in vivo, Digitaria sanguinalis; conditions: for Plant response rating (scale of 0 to 100), Crabgrass, Large: 250 g ai/ha
In short: (§3)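 Visual rating, 0–100 scale (0 no effect, 100 complete control), vs untreated controls after 13–15 d greenhouse. Pre: seeds in loam/sand, treated at sowing. Post: plants in peat-based mix, 1- to 4-leaf (2–18 cm). Solvent + surfactant formulation, non-phytotoxic.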

corn = assay: Test A postemergence; type: in vivo, Zea mays
In short: as §1

velvetleaf = assay: Test A postemergence; type: in vivo, Abutilon theophrasti
In short: as §1

blackgrass = assay: Test C preemergence; type: in vivo, Alopecurus myosuroides; conditions: for Plant response rating (scale of 0 to 100), Blackgrass: 250 g ai/ha
In short: as §3

foxtail, giant = assay: Test A postemergence; type: in vivo, Setaria faberii
In short: as §1

ryegrass, Italian = assay: Test C preemergence; type: in vivo, Lolium multiflorum; conditions: for Plant response rating (scale of 0 to 100), Ryegrass, Italian: 250 g ai/ha
In short: as §3

barnyardgrass [3] = assay: Test A postemergence; type: in vivo, Echinochloa crus-galli
In short: as §1

morningglory = assay: Test C preemergence; type: in vivo, Ipomoea coccinea; conditions: for Plant response rating (scale of 0 to 100), Morningglory: 250 g ai/ha
In short: as §3

johnsongrass = assay: Test C preemergence; type: in vivo, Sorghum halepense; conditions: for Plant response rating (scale of 0 to 100), Johnsongrass: 250 g ai/ha
In short: as §3

pigweed [4] = assay: Test C preemergence; type: in vivo, Amaranthus retroflexus; conditions: for Plant response rating (scale of 0 to 100), Pigweed: 250 g ai/ha
In short: as §3

rice = assay: Test B flood; type: in vivo, Oryza sativa; conditions: 250 g ai/ha, visual rating on 0 to 100 scale (0 no effect, 100 complete control), 13 to 15 days
In short: as §2

barnyardgrass [5] = assay: Test A preemergence; type: in vivo, Echinochloa crus-galli; conditions: preemergence
In short: as §1

[6] = 125 g ai/ha, visual injury, 0 to 100 scale, approx. 10 days
[7] = 500 g ai/ha, visual injury after approx. 10 days, 0 to 100 scale (0 no effect, 100 complete control)
[8] = Preemergence, 16 g ai/ha, scale 0 to 100
[9] = preemergence, 31 g ai/ha, visual rating, scale 0 to 100 (0 no effect, 100 complete control), 13 to 15 days
[10] = preemergence, 62 g ai/ha, 13 to 15 days, scale 0 to 100, 0 = no effect, 100 = complete control
[11] = preemergence, 125 g ai/ha, scale 0 to 100, 0 is no effect, 100 is complete control
[12] = Postemergence, 500 g ai/ha, visual rating after approx. 10 days, 0 to 100 scale (0 no effect, 100 complete control)
[13] = postemergence, 125 g ai/ha, about 10 days, visual rating on 0 to 100 scale (0 no effect, 100 complete control)

CCc1cc(C(=O)NOC(C)C)nn1Cc1ccnc(C(F)(F)F)c1 [Compound 101]
0: Plant response rating, Barnyardgrass (barnyardgrass [2]) | Plant response rating, Ryegrass, Italian (ryegrass, Italian; [8]) | Plant response rating, Johnsongrass (johnsongrass; [8]) | Plant response rating, Rice (rice)
60: Plant response rating, Ryegrass, Italian (ryegrass, Italian; [10])
85: Morningglory plant response rating (morningglory; [9])
80: Crabgrass, Large plant response rating (crabgrass, large; [9]) | Velvetleaf plant response rating (velvetleaf; [12]) | Foxtail, Giant plant response rating (foxtail, giant; [13]) | Barnyardgrass plant response rating (barnyardgrass [3]; [13]) | Pigweed plant response rating (pigweed [4]; [9])
50: Velvetleaf plant response rating (velvetleaf; [13])
65: Plant response rating, Crabgrass, Large (crabgrass, large; [8])
30: Plant response rating, Blackgrass (blackgrass; [8]) | Ryegrass, Italian plant response rating (ryegrass, Italian; [9])
40: Plant response rating, Morningglory (morningglory; [8]) | Plant response rating, Johnsongrass (johnsongrass; [10])
75: Blackgrass plant response rating (blackgrass; [9]) | Johnsongrass plant response rating (johnsongrass; [11])
20: Johnsongrass plant response rating (johnsongrass; [9]) | Plant response rating, Pigweed (pigweed [4]; [8])
95: Blackgrass plant response rating (blackgrass; [11])
90: Corn plant response rating (corn; [13]) | Plant response rating, Blackgrass (blackgrass; [10]) | Foxtail, Giant plant response rating (foxtail, giant; [12]) | Barnyardgrass plant response rating (barnyardgrass [3]; [12]) | Plant response rating, Pigweed (pigweed [4]; [10])
100: Pigweed plant response rating (pigweed [1]; [6]) | Pigweed plant response rating (pigweed [1]; [7]) | Plant response rating, Crabgrass, Large (crabgrass, large; [10]) | Crabgrass, Large plant response rating (crabgrass, large; [11]) | Corn plant response rating (corn; [12]) | Ryegrass, Italian plant response rating (ryegrass, Italian; [11]) | Plant response rating, Morningglory (morningglory; [10]) | Morningglory plant response rating (morningglory; [11]) | Pigweed plant response rating (pigweed [4]; [11]) | Barnyardgrass plant response rating (barnyardgrass [5]; [6]) | Barnyardgrass plant response rating (barnyardgrass [5]; [7])

CCc1cc(C(=O)NC(C)C)nn1Cc1ccnc(C(F)(F)F)c1 [Compound 103]
80: Corn plant response rating (corn; [13]) | Velvetleaf plant response rating (velvetleaf; [12])
95: Plant response rating, Ryegrass, Italian (ryegrass, Italian; [10]) | Ryegrass, Italian plant response rating (ryegrass, Italian; [11])
40: Plant response rating, Barnyardgrass (barnyardgrass [2])
100: Pigweed plant response rating (pigweed [1]; [6]) | Pigweed plant response rating (pigweed [1]; [7]) | Plant response rating (scale of 0 to 100), Crabgrass, Large (crabgrass, large; Preemergence) | Crabgrass, Large plant response rating (crabgrass, large; [9]) | Plant response rating, Crabgrass, Large (crabgrass, large; [10]) | Crabgrass, Large plant response rating (crabgrass, large; [11]) | Plant response rating (scale of 0 to 100), Blackgrass (blackgrass; Preemergence) | Blackgrass plant response rating (blackgrass; [9]) | Plant response rating, Blackgrass (blackgrass; [10]) | Blackgrass plant response rating (blackgrass; [11]) | Plant response rating (scale of 0 to 100), Morningglory (morningglory; Preemergence) | Morningglory plant response rating (morningglory; [9]) | Plant response rating, Morningglory (morningglory; [10]) | Morningglory plant response rating (morningglory; [11]) | Plant response rating (scale of 0 to 100), Johnsongrass (johnsongrass; Preemergence) | Plant response rating, Johnsongrass (johnsongrass; [10]) | Johnsongrass plant response rating (johnsongrass; [11]) | Plant response rating (scale of 0 to 100), Pigweed (pigweed [4]; Preemergence) | Pigweed plant response rating (pigweed [4]; [9]) | Plant response rating, Pigweed (pigweed [4]; [10]) | Pigweed plant response rating (pigweed [4]; [11]) | Barnyardgrass plant response rating (barnyardgrass [5]; [6]) | Barnyardgrass plant response rating (barnyardgrass [5]; [7])
70: Velvetleaf plant response rating (velvetleaf; [13])
98: Plant response rating (scale of 0 to 100), Ryegrass, Italian (ryegrass, Italian; Preemergence)
75: Ryegrass, Italian plant response rating (ryegrass, Italian; [9])
90: Corn plant response rating (corn; [12]) | Foxtail, Giant plant response rating (foxtail, giant; [12]) | Foxtail, Giant plant response rating (foxtail, giant; [13]) | Barnyardgrass plant response rating (barnyardgrass [3]; [12]) | Barnyardgrass plant response rating (barnyardgrass [3]; [13])
50: Plant response rating, Rice (rice)
85: Johnsongrass plant response rating (johnsongrass; [9])

CCOc1cc(C(=O)NCC(F)(F)F)nn1Cc1ccnc(C(F)(F)F)c1 [Compound 104]
80: Ryegrass, Italian plant response rating (ryegrass, Italian; [9])
100: Pigweed plant response rating (pigweed [1]; [6]) | Pigweed plant response rating (pigweed [1]; [7]) | Plant response rating (scale of 0 to 100), Crabgrass, Large (crabgrass, large; Preemergence) | Crabgrass, Large plant response rating (crabgrass, large; [9]) | Plant response rating, Crabgrass, Large (crabgrass, large; [10]) | Crabgrass, Large plant response rating (crabgrass, large; [11]) | Corn plant response rating (corn; [12]) | Velvetleaf plant response rating (velvetleaf; [12]) | Plant response rating (scale of 0 to 100), Morningglory (morningglory; Preemergence) | Morningglory plant response rating (morningglory; [9]) | Plant response rating, Morningglory (morningglory; [10]) | Morningglory plant response rating (morningglory; [11]) | Plant response rating (scale of 0 to 100), Johnsongrass (johnsongrass; Preemergence) | Plant response rating, Johnsongrass (johnsongrass; [10]) | Johnsongrass plant response rating (johnsongrass; [11]) | Plant response rating (scale of 0 to 100), Pigweed (pigweed [4]; Preemergence) | Pigweed plant response rating (pigweed [4]; [9]) | Plant response rating, Pigweed (pigweed [4]; [10]) | Pigweed plant response rating (pigweed [4]; [11]) | Barnyardgrass plant response rating (barnyardgrass [5]; [6]) | Barnyardgrass plant response rating (barnyardgrass [5]; [7])
85: Blackgrass plant response rating (blackgrass; [9])
90: Corn plant response rating (corn; [13]) | Velvetleaf plant response rating (velvetleaf; [13]) | Plant response rating (scale of 0 to 100), Blackgrass (blackgrass; Preemergence) | Plant response rating, Blackgrass (blackgrass; [10]) | Blackgrass plant response rating (blackgrass; [11]) | Foxtail, Giant plant response rating (foxtail, giant; [12]) | Foxtail, Giant plant response rating (foxtail, giant; [13]) | Plant response rating, Ryegrass, Italian (ryegrass, Italian; [10]) | Barnyardgrass plant response rating (barnyardgrass [3]; [12]) | Barnyardgrass plant response rating (barnyardgrass [3]; [13]) | Johnsongrass plant response rating (johnsongrass; [9])
95: Plant response rating (scale of 0 to 100), Ryegrass, Italian (ryegrass, Italian; Preemergence) | Ryegrass, Italian plant response rating (ryegrass, Italian; [11])
75: Plant response rating, Barnyardgrass (barnyardgrass [2])
40: Plant response rating, Rice (rice)
